Test [1] relates to MIA PaCa-2 (KRAS G12C) cells. The test can be described thus: KRAS_G12C cellular pERK HTRF assay. The test is classed as cell-based, human. The following applies: phospho-ERK1/2 HTRF, 4 hours incubation, read-out: G12C_pERK (KRAS_G12C pERK assay IC50). As for the experimental part: MIA PaCa-2 (KRAS G12C; ATCC® CRL-1420), A427 (KRAS G12D; ATCC® HTB53), HPAF-II (KRAS G12D; ATCC® CRL-1997) and NCI-H838 (KRAS WT; ATCC® CRL-5844) cells are purchased from ATCC and maintained in RPMI 1640 media supplemented with 10% FBS (Gibco/Life Technologies). The cells are plated at 5000 cells per well (8 uL) into Greiner 384-well low volume, flat-bottom, tissue culture treated white plates and incubated overnight at 37° C., 5% CO2. The next morning, test compound stock solutions are diluted in media at 3× the final concentration, and 4 uL are added to the cells. The plate is mixed by gentle rotation for 30 seconds (250 rpm) at room temperature. The cells are incubated with the KRAS G12C and G12D compounds for 4 hours or 2 hours respectively at 37° C., 5% CO2.
4 uL of 4× lysis buffer with blocking reagent (1:25) (Cisbio) are added to each well and plates are rotated gently (300 rpm) for 30 minutes at room temperature. 4 uL per well of Cisbio anti Phospho-ERK 1/2 d2 is mixed with anti Phospho-ERK 1/2 Cryptate (1:1) are added to each well, mixed by rotation and incubated overnight in the dark at room temperature. Plates are read on the Pherastar plate reader at 665 nm and 620 nm wavelengths. IC50 determination is performed by fitting the curve of inhibitor percent inhibition versus the log of the inhibitor concentration using the GraphPad Prism 7 software.

A further test concerns the target KRAS G12C (Homo sapiens, UniProt P01116, G12C). The test can be described thus: KRAS G12C GDP-GTP exchange assay (bodipy-GDP for GppNHp, with SOS1). It counts as biochemical. The conditions noted are these: 2.5 nM bodipy-loaded KRAS G12C, 2 hours pre-incubation with inhibitor, 2 hours after GppNHp-SOS1; read-out: G12C_exchange (KRAS_G12C exchange assay IC50). The method, then: The inhibitor potency of the exemplified compounds was determined in a fluorescence based guanine nucleotide exchange assay, which measures the exchange of bodipy-GDP (fluorescently labeled GDP) for GppNHp (Non-hydrolyzable GTP analog) to generate the active state of KRAS in the presence of SOS1 (guanine nucleotide exchange factor). Inhibitors were serially diluted in DMSO and a volume of 0.1 μL was transferred to the wells of a black low volume 384-well plate. 5 μL/well volume of bodipy-loaded KRAS G12C diluted to 5 nM in assay buffer (25 mM Hepes pH 7.5, 50 mM NaCl, 10 mM MgCl2 and 0.01% Brij-35) was added to the plate and pre-incubated with inhibitor for 2 hours at ambient temperature. Appropriate controls (enzyme with no inhibitor or with a G12C inhibitor (AMG-510)) were included on the plate. The exchange was initiated by the addition of a 5 μL/well volume containing 1 mM GppNHp and 300 nM SOS1 in assay buffer. The 10 μL/well reaction concentration of the bodipy-loaded KRAS G12C, GppNHp, and SOS1 were 2.5 nM, 500 uM, and 150 nM, respectively. The reaction plates were incubated at ambient temperature for 2 hours, a time estimated for complete GDP-GTP exchange in the absence of inhibitor. For the KRAS G12D and G12V mutants, similar guanine nucleotide exchange assays were used with 2.5 nM as final concentration for the bodipy loaded KRAS proteins and with 4 hours and 3 hours incubation after adding GppNHp-SOS1 mixture for G12D and G12V respectively. A cyclic peptide described to selectively bind G12D mutant (Sakamoto et al., BBRC 484.3 (2017), 605-611) or internal compounds with confirmed binding were used as positive controls in the assay plates. Fluorescence intensities were measured on a PheraStar plate reader instrument (BMG Labtech) with excitation at 485 nm and emission at 520 nm.
Either GraphPad prism or XLfit was used to analyze the data. The IC50 values were derived by fitting the data to a four parameter logistic equation producing a sigmoidal dose-response curve with a variable Hill coefficient. Prism equation: Y=Bottom+(Top−Bottom)/(1+10^((Log IC50−X)*Hill slope)); XLfit equation: Y=(A+((B−A)/(1+((X/C)^D)))) where X is the logarithm of inhibitor concentration and Y is the response.

24 compounds from patent publication US20210355121A1, “FUSED TRICYCLIC KRAS INHIBITORS” (Incyte Corporation, priority 2020, published 2021) can be followed below.

Like-named read-outs stand apart in the source and are kept apart here.

Sequence of KRAS G12C (P01116 1-188 isoform P01116-2 G12C): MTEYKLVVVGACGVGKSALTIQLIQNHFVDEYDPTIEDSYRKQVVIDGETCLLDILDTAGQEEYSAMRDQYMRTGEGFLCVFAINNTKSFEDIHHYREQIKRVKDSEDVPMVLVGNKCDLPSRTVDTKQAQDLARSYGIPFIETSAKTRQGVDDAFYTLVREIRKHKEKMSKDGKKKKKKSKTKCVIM

Turning to `CC#CC(=O)N1CC[C@H](n2ncc3c(N4CC(C)(N(C)C)C4)nc4c(F)c(-c5c(C)c(Cl)cc6[nH]ncc56)c(Cl)cc4c32)C[C@H]1CC#N` (single isomer, unassigned) [Example 11a], the IC50 in test [1] (Homo sapiens, MIA PaCa-2) was no more than 100 nM; on KRAS G12C it was no more than 100 nM.

`COC/C=C/C(=O)N1CC[C@H](n2ncc3c(N4CC(C)(N(C)C)C4)nc4c(F)c(-c5c(C)c(Cl)cc6[nH]ncc56)c(Cl)cc4c32)C[C@H]1CC#N` (single isomer, unassigned) [Example 12a]: the IC50 in test [1] (Homo sapiens, MIA PaCa-2) is no more than 100 nM; on KRAS G12C, no more than 100 nM.

As for `Cc1c(Cl)cc2[nH]ncc2c1-c1c(Cl)cc2c(nc(N3CC(C)(N(C)C)C3)c3cnn([C@H]4CCN(C(=O)/C=C/CF)[C@H](CC#N)C4)c32)c1F` (single isomer, unassigned) [Example 13a], the IC50 was no more than 100 nM in test [1] (Homo sapiens, MIA PaCa-2) and no more than 100 nM at KRAS G12C.

With `Cc1c(Cl)cc2[nH]ncc2c1-c1c(Cl)cc2c(nc(N3CC(C)(N(C)C)C3)c3cnn([C@H]4CCN(C(=O)/C=C/C(F)F)[C@H](CC#N)C4)c32)c1F` (single isomer, unassigned) [Example 14a], the IC50 in test [1] (Homo sapiens, MIA PaCa-2) was no more than 100 nM; on KRAS G12C, no more than 100 nM.

`C=C(F)C(=O)N1CC[C@H](n2ncc3c(N4CC(C)(N(C)C)C4)nc4c(F)c(-c5c(C)c(Cl)cc6[nH]ncc56)c(Cl)cc4c32)C[C@H]1CC#N` (single isomer, unassigned) [Example 15a]: the IC50 was no more than 100 nM in test [1] (Homo sapiens, MIA PaCa-2) and no more than 100 nM on KRAS G12C.

`C=CC(=O)N1CC[C@H](n2ncc3c(N4CC(C)(N(C)C)C4)nc4c(F)c(-c5c(C)c(Cl)cc6[nH]ncc56)c(Cl)cc4c32)C[C@H]1CC#N` (single isomer, unassigned) [Example 16a]: the IC50 in test [1] (Homo sapiens, MIA PaCa-2) is no more than 100 nM; on KRAS G12C, no more than 100 nM.

With `Cc1c(Cl)cc2[nH]ncc2c1-c1c(Cl)cc2c(nc(OC[C@@H]3CCCN3C)c3cnn([C@H]4CCN(C(=O)/C=C/CN(C)C)[C@H](CC#N)C4)c32)c1F` (single isomer, unassigned) [Example 17a], the IC50 in test [1] (Homo sapiens, MIA PaCa-2) is no more than 100 nM; on KRAS G12C, no more than 100 nM.

In the case of `CC#CC(=O)N1CC[C@H](n2ncc3c(OC[C@@H]4CCCN4C)nc4c(F)c(-c5c(C)c(Cl)cc6[nH]ncc56)c(Cl)cc4c32)C[C@H]1CC#N` (single isomer, unassigned) [Example 18a], the IC50 is no more than 100 nM in test [1] (Homo sapiens, MIA PaCa-2) and no more than 100 nM on KRAS G12C.

Turning to `COC/C=C/C(=O)N1CC[C@H](n2ncc3c(OC[C@@H]4CCCN4C)nc4c(F)c(-c5c(C)c(Cl)cc6[nH]ncc56)c(Cl)cc4c32)C[C@H]1CC#N` (single isomer, unassigned) [Example 19a], the IC50 is no more than 100 nM in test [1] (Homo sapiens, MIA PaCa-2) and no more than 100 nM on KRAS G12C.

As to `C=CC(=O)N1CC[C@H](n2ncc3c(OC[C@@H]4CCCN4C)nc4c(F)c(-c5c(C)c(Cl)cc6[nH]ncc56)c(Cl)cc4c32)C[C@H]1CC#N` (single isomer, unassigned) [Example 20a], the IC50 in test [1] (Homo sapiens, MIA PaCa-2) is no more than 100 nM; at KRAS G12C, no more than 100 nM.

As for `C=CC(=O)N1CC[C@H](n2ncc3c(N4CC(N(C)C)C4)nc4c(F)c(-c5ccc(F)c6cccnc56)c(Cl)cc4c32)C[C@H]1CC#N` (single isomer, unassigned) [Example 21a], the IC50 in test [1] (Homo sapiens, MIA PaCa-2) was no more than 100 nM; on KRAS G12C, no more than 100 nM.

Consider `C=CC(=O)N1CC[C@H](n2ncc3c(N4CC(N(C)C)C4)nc4c(F)c(-c5ccc(F)c6cccnc56)c(Cl)cc4c32)C[C@H]1CC#N` (single isomer, unassigned) [Example 21b], for which the IC50 (in test [1]; at KRAS G12C) was no more than 100 nM in each case.

In the case of `C=CC(=O)N1CC[C@H](n2ncc3c(N4CC(N(C)C)C4)nc4c(F)c(-c5cccc(Cl)c5Cl)c(Cl)cc4c32)C[C@H]1CC#N` (single isomer, unassigned) [Example 25a], the IC50 in test [1] (Homo sapiens, MIA PaCa-2) is no more than 100 nM; on KRAS G12C it was no more than 100 nM.

For `C=CC(=O)N1CC[C@H](n2ncc3c(N4CC(N(C)C)C4)nc4c(F)c(-c5cccc(Cl)c5Cl)c(Cl)cc4c32)C[C@H]1CC#N` (single isomer, unassigned) [Example 25b], the IC50 (in test [1]; at KRAS G12C) was no more than 100 nM throughout.

On to `CC#CC(=O)N1CC[C@H](n2ncc3c(N4CC(N(C)C)C4)nc4c(F)c(-c5cccc(Cl)c5Cl)c(Cl)cc4c32)C[C@H]1CC#N` (single isomer, unassigned) [Example 26a], for which the IC50 in test [1] (Homo sapiens, MIA PaCa-2) was no more than 100 nM; at KRAS G12C it was no more than 100 nM.

In the case of `CC#CC(=O)N1CC[C@H](n2ncc3c(N4CC(N(C)C)C4)nc4c(F)c(-c5cccc(Cl)c5Cl)c(Cl)cc4c32)C[C@H]1CC#N` (single isomer, unassigned) [Example 26b], the IC50 (in test [1]; at KRAS G12C) was no more than 100 nM in each case.

As to `COC/C=C/C(=O)N1CC[C@H](n2ccc3c(OC[C@@H]4CCCN4C)nc4c(F)c(-c5c(C)c(C)cc6[nH]ncc56)c(Cl)cc4c32)C[C@H]1CC#N` (single isomer, unassigned) [Example 47a], the IC50 in test [1] (Homo sapiens, MIA PaCa-2) is no more than 100 nM; at KRAS G12C, no more than 100 nM.

For the compound `Cc1cc2c(nc(OC[C@@H]3CCCN3C)c3cnn([C@H]4CCN(C(=O)/C=C/CF)[C@H](CC#N)C4)c32)c(F)c1-c1cccc2cccc(C#N)c12` (single isomer, unassigned) [Example 51a], the IC50 in test [1] (Homo sapiens, MIA PaCa-2) is no more than 100 nM; on KRAS G12C, no more than 100 nM.

Turning to `C=C(F)C(=O)N1CC[C@H](n2ncc3c(OC[C@@H]4CCCN4C)nc4c(F)c(-c5cccc6cccc(C#N)c56)c(C)cc4c32)C[C@H]1CC#N` (single isomer, unassigned) [Example 52a], the IC50 in test [1] (Homo sapiens, MIA PaCa-2) is no more than 100 nM; at KRAS G12C, no more than 100 nM.

In the case of `CC#CC(=O)N1CC[C@H](n2ncc3c(OC[C@@H]4CCCN4C)nc4c(F)c(-c5cccc6cccc(C#N)c56)c(C)cc4c32)C[C@H]1CC#N` (single isomer, unassigned) [Example 53a], the IC50 was no more than 100 nM in test [1] (Homo sapiens, MIA PaCa-2) and no more than 100 nM at KRAS G12C.

As for `COC/C=C/C(=O)N1CC[C@H](n2ncc3c(OC[C@@H]4CCCN4C)nc4c(F)c(-c5cccc6cccc(C#N)c56)c(C)cc4c32)C[C@H]1CC#N` (single isomer, unassigned) [Example 54a], the IC50 was no more than 100 nM in test [1] (Homo sapiens, MIA PaCa-2) and no more than 100 nM on KRAS G12C.

For `Cc1cc2c(nc(O[C@@H](C)[C@@H]3CCCN3C)c3cnn([C@H]4CCN(C(=O)/C=C/CF)[C@H](CC#N)C4)c32)c(F)c1-c1cccc2cccc(C#N)c12` (single isomer, unassigned) [Example 55b], the IC50 in test [1] (Homo sapiens, MIA PaCa-2) is no more than 100 nM; at KRAS G12C, no more than 100 nM.

In the case of `C=C(F)C(=O)N1CC[C@H](n2ncc3c(O[C@@H](C)[C@@H]4CCCN4C)nc4c(F)c(-c5cccc6cccc(C#N)c56)c(C)cc4c32)C[C@H]1CC#N` (single isomer, unassigned) [Example 56b], the IC50 in test [1] (Homo sapiens, MIA PaCa-2) is no more than 100 nM; on KRAS G12C, no more than 100 nM.

As to `COC/C=C/C(=O)N1CC[C@H](n2ncc3c(O[C@@H](C)[C@@H]4CCCN4C)nc4c(F)c(-c5cccc6cccc(C#N)c56)c(C)cc4c32)C[C@H]1CC#N` (single isomer, unassigned) [Example 57b], the IC50 in test [1] (Homo sapiens, MIA PaCa-2) was no more than 100 nM; on KRAS G12C it was no more than 100 nM.
